Several values for one entry are separate records, joined by “and”; a condition that tells them apart may be missing. Equal values may be shown once. Toxic doses and inconclusive results are not listed.
Test system: L1210 leukemia ip in BDF1 mice, survival T/C
Assay: NCI In Vivo Anticancer Drug Screen. Data for tumor model L1210 Leukemia (intraperitoneal) in B6D2F1 (BDF1) mice
Conditions: endpoint: mean survival time, higher = longer survival
Method in brief: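 Mice bearing the transplanted tumor received compound or vehicle. Survival of the treated group was divided by that of the vehicle-treated control group to give the ratio.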

[1] = dose: 100.0 mg/kg/injection, schedule: Q04DX003 (ip), vehicle: saline with Tween-80
[2] = dose: 100.0 mg/kg/injection, schedule: Q04DX002 (ip), vehicle: Klucel (hydroxypropylcellulose) (HPC)
[3] = dose: 200.0 mg/kg/injection, schedule: Q04DX002 (ip), vehicle: Klucel (hydroxypropylcellulose) (HPC)
[4] = dose: 100.0 mg/kg/injection, schedule: Q01DX001 (ip), vehicle: carboxymethylcellulose (CMC)
[5] = dose: 200.0 mg/kg/injection, schedule: Q01DX001 (ip), vehicle: carboxymethylcellulose (CMC)
[6] = dose: 400.0 mg/kg/injection, schedule: Q01DX001 (ip), vehicle: carboxymethylcellulose (CMC)
[7] = dose: 25.0 mg/kg/injection, schedule: Q01DX009 (ip), vehicle: Klucel (hydroxypropylcellulose) (HPC)
[8] = dose: 50.0 mg/kg/injection, schedule: Q01DX009 (ip), vehicle: Klucel (hydroxypropylcellulose) (HPC)
[9] = dose: 100.0 mg/kg/injection, schedule: Q04DX003 (ip), vehicle: Klucel (hydroxypropylcellulose) (HPC)
[10] = dose: 100.0 mg/kg/injection, schedule: Q01DX001 (ip), vehicle: Klucel (hydroxypropylcellulose) (HPC)
[11] = dose: 200.0 mg/kg/injection, schedule: Q01DX001 (ip), vehicle: Klucel (hydroxypropylcellulose) (HPC)
[12] = dose: 400.0 mg/kg/injection, schedule: Q01DX001 (ip), vehicle: Klucel (hydroxypropylcellulose) (HPC)
[13] = dose: 100.0 mg/kg/injection, schedule: Q01DX009 (ip), vehicle: saline with Tween-80
[14] = dose: 200.0 mg/kg/injection, schedule: Q01DX009 (ip), vehicle: saline with Tween-80
[15] = dose: 200.0 mg/kg/injection, schedule: Q04DX003 (ip), vehicle: saline with Tween-80
[16] = dose: 400.0 mg/kg/injection, schedule: Q04DX003 (ip), vehicle: saline with Tween-80

With `O=C(C[n+]1cccc(Cl)c1)c1ccccc1` the T/C (dose: 0.5 mg/kg/injection, schedule: Q04DX003 (ip), vehicle: saline) was 113 % of control, the T/C (dose: 1.0 mg/kg/injection, schedule: Q04DX003 (ip), vehicle: saline) was 105 % of control and the T/C (dose: 2.0 mg/kg/injection, schedule: Q04DX003 (ip), vehicle: saline) was 102 % of control.

For `CN(C)c1ccc(/C=C2\C=Cc3ccccc32)cc1Br`, the T/C [1] was 101 % of control.

In the case of `Nc1ccccc1SSc1ccccc1N`, the T/C [2] is reported as 86 % of control and the T/C [3] is reported as 86 % of control.

`CCCN=Cc1cnc(C#N)c(N)n1` was tested, and the T/C [2] was 97 % of control, the T/C [3] was 94 % of control and the T/C (dose: 400.0 mg/kg/injection, schedule: Q04DX002 (ip), vehicle: Klucel (hydroxypropylcellulose) (HPC)) was 97 % of control.

In the case of `O=C1CCSc2ccccc21`, the T/C (dose: 37.5 mg/kg/injection, schedule: Q01DX009 (ip), vehicle: saline) is reported as 102 % of control, the T/C (dose: 75.0 mg/kg/injection, schedule: Q01DX009 (ip), vehicle: saline) is reported as 111 % of control and the T/C [4] is reported as 92 % of control. For the same molecule, the T/C (dose: 100.0 mg/kg/injection, schedule: Q01DX009 (ip), vehicle: saline sonified) was 105 % of control, the T/C (dose: 100.0 mg/kg/injection, schedule: Q04DX003 (ip), vehicle: other) was 96 % of control and the T/C (dose: 150.0 mg/kg/injection, schedule: Q01DX009 (ip), vehicle: saline) was 104 % of control. The T/C [5] was 106 % of control, the T/C (dose: 200.0 mg/kg/injection, schedule: Q01DX009 (ip), vehicle: saline sonified) was 93 % of control and the T/C (dose: 200.0 mg/kg/injection, schedule: Q04DX003 (ip), vehicle: other) was 96 % of control. The T/C [6] was 111 % of control, the T/C (dose: 400.0 mg/kg/injection, schedule: Q01DX009 (ip), vehicle: saline sonified) was 97 % of control and the T/C (dose: 400.0 mg/kg/injection, schedule: Q04DX003 (ip), vehicle: other) was 102 % of control.

In the case of `ONC(=NCc1ccccc1)c1ccccc1`, the T/C [4] is reported as 97 % of control and the T/C [5] is reported as 103 % of control.

For `NNC(=S)N/N=C/c1ccc([N+](=O)[O-])s1`, the T/C (dose: 100.0 mg/kg/injection, schedule: Q04DX003 (ip), vehicle: saline) was 87 % of control, the T/C (dose: 200.0 mg/kg/injection, schedule: Q04DX003 (ip), vehicle: saline) was 89 % of control and the T/C (dose: 400.0 mg/kg/injection, schedule: Q04DX003 (ip), vehicle: saline) was 95 % of control.

In the case of `O=[N+]([O-])c1cc(Cl)cc2c1-c1c(Cl)cc(Cl)cc1/C2=N/O`, the T/C [7] is reported as 106 % of control, the T/C [8] is reported as 94 % of control and the T/C [9] is reported as 101 % of control.

For `CC(=O)OCC(=O)[C@@]1(O)CC[C@H]2[C@@H]3CCC4=CC(=O)[C@H](C)C[C@]4(C)[C@H]3[C@@H](O)C[C@@]21C`, the T/C (dose: 50.0 mg/kg/injection, schedule: Q01DX001 (sc), vehicle: steriod suspending solution) was 111 % of control, the T/C (dose: 100.0 mg/kg/injection, schedule: Q01DX001 (sc), vehicle: steriod suspending solution) was 102 % of control and the T/C (dose: 100.0 mg/kg/injection, schedule: Q04DX003 (sc), vehicle: steriod suspending solution) was 100 % of control. For the same molecule, the T/C (dose: 200.0 mg/kg/injection, schedule: Q01DX001 (sc), vehicle: steriod suspending solution) was 102 % of control, the T/C (dose: 200.0 mg/kg/injection, schedule: Q04DX003 (sc), vehicle: steriod suspending solution) was 105 % of control and the T/C (dose: 400.0 mg/kg/injection, schedule: Q01DX001 (sc), vehicle: steriod suspending solution) was 110 % of control. For the same molecule, the T/C (dose: 400.0 mg/kg/injection, schedule: Q04DX003 (sc), vehicle: steriod suspending solution) was 107 % of control.

For `Oc1ccc(/C=N/N2CCN(/N=C/c3ccc(O)cc3O)CC2)c(O)c1`, the T/C (dose: 100.0 mg/kg/injection, schedule: Q01DX001 (ip), vehicle: saline) was 97 % of control, the T/C (dose: 200.0 mg/kg/injection, schedule: Q01DX001 (ip), vehicle: saline) was 94 % of control and the T/C (dose: 400.0 mg/kg/injection, schedule: Q01DX001 (ip), vehicle: saline) was 100 % of control.

With `CCOC(=O)CC(C(C)=O)P(=O)(OCC)OCC` (stereo not drawn) the T/C (dose: 50.0 mg/kg/injection, schedule: Q01DX009 (ip), vehicle: saline + alcohol) was 96 % of control, the T/C (dose: 100.0 mg/kg/injection, schedule: Q01DX009 (ip), vehicle: saline + alcohol) was 96 % of control and the T/C (dose: 200.0 mg/kg/injection, schedule: Q01DX009 (ip), vehicle: saline + alcohol) was 92 % of control.

`C=CCc1c2c(ccc(=O)c1O)-c1c(cc(OC)c(OC)c1OC)CCC2NC(C)=O` (stereo not drawn) was tested, and the T/C [4] was 117 % of control, the T/C (dose: 177.6 mg/kg/injection, schedule: Q01DX001 (ip), vehicle: carboxymethylcellulose (CMC)) was 110 % of control and 119 % of control and the T/C [5] was 117 % of control. For the same molecule, the T/C (dose: 266.8 mg/kg/injection, schedule: Q01DX001 (ip), vehicle: carboxymethylcellulose (CMC)) was 95 % of control and 118 % of control.

With `CCCCCCCCCCCCCCCC(=O)N(CCCN)CCCN` the T/C (dose: 12.5 mg/kg/injection, schedule: Q01DX009 (ip), vehicle: saline with Tween-80) was 109 % of control, the T/C (dose: 12.5 mg/kg/injection, schedule: Q04DX003 (ip), vehicle: saline) was 98 % of control and the T/C (dose: 25.0 mg/kg/injection, schedule: Q04DX003 (ip), vehicle: saline) was 103 % of control. For the same molecule, the T/C (dose: 50.0 mg/kg/injection, schedule: Q04DX003 (ip), vehicle: saline) was 101 % of control.

For `C=C(C)COc1ccc(Nc2ccccc2)cc1`, the T/C [10] was 92 % of control, the T/C [11] was 95 % of control and the T/C [12] was 89 % of control.

With `O=C(Cn1ccc(=O)[nH]c1=O)c1cccs1` the T/C [13] was 104 % of control, the T/C [1] was 98 % of control and the T/C [14] was 96 % of control. The T/C [15] was 96 % of control, the T/C (dose: 400.0 mg/kg/injection, schedule: Q01DX009 (ip), vehicle: saline with Tween-80) was 96 % of control and the T/C [16] was 95 % of control.

`COc1ccc(C)cc1NC(=O)OCCOc1cc(C)c(Cl)c(C)c1` was tested, and the T/C (dose: 50.0 mg/kg/injection, schedule: Q01DX009 (ip), vehicle: saline with Tween-80) was 90 % of control, the T/C [13] was 87 % of control and the T/C [14] was 87 % of control.

With `Oc1ccc2c(c1)CCc1cn[nH]c1-2` the T/C (dose: 100.0 mg/kg/injection, schedule: Q01DX001 (ip), vehicle: other) was 102 % of control, the T/C (dose: 100.0 mg/kg/injection, schedule: Q01DX009 (ip), vehicle: other) was 98 % of control and the T/C (dose: 200.0 mg/kg/injection, schedule: Q01DX001 (ip), vehicle: other) was 103 % of control. The T/C (dose: 200.0 mg/kg/injection, schedule: Q01DX009 (ip), vehicle: other) was 96 % of control, the T/C (dose: 400.0 mg/kg/injection, schedule: Q01DX001 (ip), vehicle: other) was 98 % of control and the T/C (dose: 400.0 mg/kg/injection, schedule: Q01DX009 (ip), vehicle: other) was 94 % of control.

In the case of `CCOC(=O)c1ccc(N=NN(C)C(C)CC)cc1` (stereo not drawn), the T/C [10] is reported as 113 % of control, the T/C [9] is reported as 102 % of control and the T/C [11] is reported as 101 % of control. For the same molecule, the T/C (dose: 200.0 mg/kg/injection, schedule: Q04DX003 (ip), vehicle: Klucel (hydroxypropylcellulose) (HPC)) was 118 % of control, the T/C [12] was 124 % of control and the T/C (dose: 400.0 mg/kg/injection, schedule: Q01DX009 (ip), vehicle: Klucel (hydroxypropylcellulose) (HPC)) was 166 % of control. The T/C (dose: 400.0 mg/kg/injection, schedule: Q04DX003 (ip), vehicle: Klucel (hydroxypropylcellulose) (HPC)) was 122 % of control.

For `Nc1cccc2c1/C(=N/O)c1ccccc1-2`, the T/C [4] was 98 % of control, the T/C [5] was 100 % of control and the T/C [6] was 98 % of control.

`S=C(NCc1ccc(Cl)cc1Cl)Nc1ccccc1` was tested, and the T/C [7] was 101 % of control, the T/C [8] was 98 % of control and the T/C (dose: 100.0 mg/kg/injection, schedule: Q01DX009 (ip), vehicle: Klucel (hydroxypropylcellulose) (HPC)) was 103 % of control and 109 % of control. The T/C (dose: 200.0 mg/kg/injection, schedule: Q01DX009 (ip), vehicle: Klucel (hydroxypropylcellulose) (HPC)) was 88 % of control.

For `COc1cc2ccnc(C(OC(=O)c3ccccc3)c3ccc(OCc4ccccc4)cc3)c2cc1OC` (stereo not drawn), the T/C [1] was 95 % of control, the T/C [15] was 88 % of control and the T/C [16] was 95 % of control.

`COC(=O)C(c1ccccc1)C1(O)CCN(Cc2ccccc2)CC1` (stereo not drawn) was tested, and the T/C (dose: 75.0 mg/kg/injection, schedule: Q04DX003 (ip), vehicle: Klucel (hydroxypropylcellulose) (HPC)) was 98 % of control, the T/C (dose: 150.0 mg/kg/injection, schedule: Q04DX003 (ip), vehicle: Klucel (hydroxypropylcellulose) (HPC)) was 101 % of control and the T/C (dose: 300.0 mg/kg/injection, schedule: Q04DX003 (ip), vehicle: Klucel (hydroxypropylcellulose) (HPC)) was 90 % of control.
